Experimental data from US20200206198A1, “CFTR CHANNEL ACTIVATOR FOR USE IN THE TREATMENT AND/OR PREVENTION OF GLUTEN SENSITIVITY CONDITIONS” (priority 2017, published 2020).

Assays:
CFTR = target: T1, CFTR (Homo sapiens, UniProt P13569); experiment: CFTR channel function in intestinal epithelial cells (forskolin-induced Isc in Ussing chambers; SPQ iodide efflux); assay type: cell-based; settings: VX-770 10 μM, VX-532 20 μM, Genistein 10 μM; Caco-2 or T84 cells
T1 construct: Immunoprecipitations of endogenous proteins were performed on 500 μg of lysates from Caco-2 cells; host or cells: Caco-2, T84
Description: Human colon adenocarcinoma-derived Caco-2 and T84 cells (Barone, M. V. et al. 2014; Luciani, A. et al. 2010) were obtained from the ATCC. Cells were maintained in T25 flask in Modified Eagle Medium (MEM) for Caco-2, or Ham's F12+DMEM (1:1) for T84, supplemented with 10% fetal bovine serum (FBS), 2 mM Glutamine+1% Non Essential Amino Acids (NEAA) and the antibiotics penicillin\streptomycin (100 units/ml) (all reagents from Lonza). Caco-2 cells were grown in Transwells (Corning, 3470 or 3460) under the normal condition. Briefly, 8×10^4 or 5×10^5 cells were seeded in 6.5-mm diameter or 12-mm diameter, respectively, and grown until the RT reached 800 to 1,200 Ω·cm^2. Transwells with a pore size of 0.4 μm were used. Medium in both the apical and baso lateral chambers was changed every other day. Cells were treated with 20 μg/ml of either with the α-gliadin peptide comprising the P31-43 amino acid sequence of α-gliadin LGQQQPFPPQQPY (SEQ ID 1) (below referred to as P31-43), which is known to induce an enterocyte stress response (Meresse, B. et al.2009; Barone, M. V. et al. 2014; Luciani, A. et al. 2010), the T-cell activating α-gliadin peptide comprising the P57-68 amino acid sequence of α-gliadin (QLQPFPQPQLPY SEQ ID 2)) (below referred to as P57-68) (Maiuri, L., et al. 2003; Meresse, B. et al.2009; 30 Barone, M. V. et al. 2014), or the scrambled GAVAAVGVVAGA (SEQ ID 3) control peptide (below referred to as PGAV), or with different modified P31-43, either biotin-tagged or not, for different time points (from 1 h short challenge up to 24 h). Cells were also treated with 50 or 100 5 μg/ml of P57-68 or PGAV peptides for 3 h.
Caco-2 or T84 cells were also treated with: CFTR potentiators VX-770 (Ivacaftor) (10 μM) or VX-532 (20 μM) (Selleck chemicals) or Genistein (10 μM) (Verkman, A. S. et al. 2005; Jih, K. Y. et al. 2013) (Sigma-Aldrich) or in presence or absence of CFTR inhibitor172 (CFTRinh172, 20 μM).
Human colon adenocarcinoma-derived Caco-2 and T84 cells were obtained from the ATCC. Cells were maintained in T25 flask in Modified Eagle Medium (MEM) for Caco-2, or Ham's F12+DMEM (1:1) for T84, supplemented with 10% fetal bovine serum (FBS), 2 mM Glutamine+1% Non Essential Amino Acids (NEAA) and the antibiotics penicillin\streptomycin (100 units/ml) (all reagents from Lonza) (Luciani, A., et al. 2010. Cells were grown in Transwells (Corning, 3470 or 3460) under the normal condition (Luciani, A., et al. 2012). Briefly, 8×10^4 or 5×10^5 cells were seeded in 6.5-mm diameter or 12-mm diameter, respectively, and grown until the RT reached 800 to 1,200 Ω·cm2. Transwells with a pore size of 0.4 μm were used. Medium in both the apical and basolateral chambers was changed every other day. […]

Caco-2 cells = experiment: Endosomal trafficking proteins in Caco-2 cells (immunoblot, endosomal fractions); assay type: cell-based, human; settings: lost if 3-MA or CFTR inhibitor added
Description: (§1) Human colon adenocarcinoma-derived Caco-2 and T84 cells were obtained from the ATCC. Cells were maintained in T25 flask in Modified Eagle Medium (MEM) for Caco-2, or Ham's F12+DMEM (1:1) for T84, supplemented with 10% fetal bovine serum (FBS), 2 mM Glutamine+1% Non Essential Amino Acids (NEAA) and the antibiotics penicillin\streptomycin (100 units/ml) (all reagents from Lonza) (Luciani, A., et al. 2010. Cells were grown in Transwells (Corning, 3470 or 3460) under the normal condition (Luciani, A., et al. 2012). Briefly, 8×10^4 or 5×10^5 cells were seeded in 6.5-mm diameter or 12-mm diameter, respectively, and grown until the RT reached 800 to 1,200 Ω·cm2. Transwells with a pore size of 0.4 μm were used. Medium in both the apical and basolateral chambers was changed every other day. Cells were treated with 20 μg/ml of either α-gliadin peptide P31-43 or […] or scrambled PGAV or modified P31-43 either biotin-tagged or not, for different time point (from 1 h short challenge up to 24 h). Cells were also treated with 50 or 100 μg/ml of P57-68 or PGAV peptides for 3 h. Caco-2 or T84 cells were also treated with: CFTR potentiators VX-770 (10 μM) or VX-532 (20 μM) (Selleck chemicals) or Genistein (10 μM) (Sigma-Aldrich) or in presence or absence of CFTR inhibitor172 (CFTRinh172, 20 μM) or 3-methyl-adenine (3-MA, 20 μM) (Calbiochem), Z-DON (20 nM, Zedira) or BAPTA-AM (10 μM, Calbiochem).
The whole lysate or membrane fraction proteins of cell lines and mice intestine homogenates were obtained from treated and untreated cells or mice as described. The equal amount of protein were resolved by SDS-PAGE gel and blotted with antibodies against: SQSTM1, (Sigma Aldrich, 108k4767) 1:1000, PPARγ (Santa Cruz Biotechnology, sc7273) 1:500, BECN1 (Abcam, ab58878) 1:1000, CFTR clone M3A7 (Abcam, ab4067) 1:500, phospho-ERK1/2 (php42/44, Cell Signaling Technology, #91101) 1:1000, UVRAG (Santa Cruz Biotechnology sc8215) 1:1000, NHERF-1 (BD, 611161) 1:1000, EZRIN (BD, 610603) 1:1000, hVps34 (SigmaV9764) 1:300, biotin (Abcam, ab1227) 1:2000, PKAr2a (BD, 610625) 1:500, Ubiquitin (Cell Signaling clone P4D1, #3936) 1:1000, CHIP (Calbiochem PC711) 1:500, Caspase-1 p10 (M-20) (Santa Cruz Biotechnology, sc-514) 1:200, NLRP3 (Abcam, ab4207), 1:500, IDO1 (monoclonal; cv152) 1:1000^[80], used as primary antibodies. Normalization was performed by probing the membrane with anti-β-actin (Cell Signaling, #4970) 1:1000, anti-Gapdh (Sigma-Aldrich, G8795) 1:1000 and anti-flottilin (Abcam ab15148) 1:1000 antibodies. Immunoprecipitations of endogenous proteins were performed on 500 μg of lysates from Caco-2 cells. The proteins were incubated for 12-18 h at 4° C. with 10 ug\ml of specific antibody followed by the addition of Protein A/G-agarose beads for 4 h at 4° C. […]

PM-associated CFTR = target: T2, PM-associated CFTR (Homo sapiens, UniProt P13569); experiment: CFTR plasma membrane disposal in Caco-2 cells (membrane fractions); assay type: cell-based
T2 construct: Immunoprecipitations of endogenous proteins were performed on 500 μg of lysates from Caco-2 cells; host or cells: Caco-2, T84
Description: as §1
The whole lysate or membrane fraction proteins of cell lines and mice intestine homogenates were obtained from treated and untreated cells or mice as described. The equal amount of protein were resolved by SDS-PAGE gel and blotted with antibodies against: SQSTM1, (Sigma Aldrich, 108k4767) 1:1000, PPARγ (Santa Cruz Biotechnology, sc7273) 1:500, BECN1 (Abcam, ab58878) 1:1000, CFTR clone M3A7 (Abcam, ab4067) 1:500, phospho-ERK1/2 (php42/44, Cell Signaling Technology, #91101) 1:1000, UVRAG (Santa Cruz Biotechnology sc8215) 1:1000, NHERF-1 (BD, 611161) 1:1000, EZRIN (BD, 610603) 1:1000, hVps34 (SigmaV9764) 1:300, biotin (Abcam, ab1227) 1:2000, PKAr2a (BD, 610625) 1:500, Ubiquitin (Cell Signaling clone P4D1, #3936) 1:1000, CHIP (Calbiochem PC711) 1:500, Caspase-1 p10 (M-20) (Santa Cruz Biotechnology, sc-514) 1:200, NLRP3 (Abcam, ab4207), 1:500, IDO1 (monoclonal; cv152) 1:1000^[80], used as primary antibodies. Normalization was performed by probing the membrane with anti-β-actin (Cell Signaling, #4970) 1:1000, anti-Gapdh (Sigma-Aldrich, G8795) 1:1000 and anti-flottilin (Abcam ab15148) 1:1000 antibodies. Immunoprecipitations of endogenous proteins were performed on 500 μg of lysates from Caco-2 cells. The proteins were incubated for 12-18 h at 4° C. with 10 ug\ml of specific antibody followed by the addition of Protein A/G-agarose beads for 4 h at 4° C. The beads were then washed three times with lysis buffer and Laemmli's sample buffer was added to the samples. The membranes were then blotted with: CFTR clone CF3 (Abcam, ab2784) 1:1000, TG2 (clone CUB7402; NeoMarkers) 1:1000, CHIP (Calbiochem PC711) 1:500, Ubiquitin (Cell Signaling clone P4D1 3936), isopeptide (Abcam 422) 1:1000, PKAR2 (BD 610625) 1:500.
Protein from membrane fractionation were obtained as described. Cells were homogenized with a PotterElvehjem pestle and centrifuged at 2300×g for 15 min at 4° C. […]

T1 sequence (P13569 whole entry): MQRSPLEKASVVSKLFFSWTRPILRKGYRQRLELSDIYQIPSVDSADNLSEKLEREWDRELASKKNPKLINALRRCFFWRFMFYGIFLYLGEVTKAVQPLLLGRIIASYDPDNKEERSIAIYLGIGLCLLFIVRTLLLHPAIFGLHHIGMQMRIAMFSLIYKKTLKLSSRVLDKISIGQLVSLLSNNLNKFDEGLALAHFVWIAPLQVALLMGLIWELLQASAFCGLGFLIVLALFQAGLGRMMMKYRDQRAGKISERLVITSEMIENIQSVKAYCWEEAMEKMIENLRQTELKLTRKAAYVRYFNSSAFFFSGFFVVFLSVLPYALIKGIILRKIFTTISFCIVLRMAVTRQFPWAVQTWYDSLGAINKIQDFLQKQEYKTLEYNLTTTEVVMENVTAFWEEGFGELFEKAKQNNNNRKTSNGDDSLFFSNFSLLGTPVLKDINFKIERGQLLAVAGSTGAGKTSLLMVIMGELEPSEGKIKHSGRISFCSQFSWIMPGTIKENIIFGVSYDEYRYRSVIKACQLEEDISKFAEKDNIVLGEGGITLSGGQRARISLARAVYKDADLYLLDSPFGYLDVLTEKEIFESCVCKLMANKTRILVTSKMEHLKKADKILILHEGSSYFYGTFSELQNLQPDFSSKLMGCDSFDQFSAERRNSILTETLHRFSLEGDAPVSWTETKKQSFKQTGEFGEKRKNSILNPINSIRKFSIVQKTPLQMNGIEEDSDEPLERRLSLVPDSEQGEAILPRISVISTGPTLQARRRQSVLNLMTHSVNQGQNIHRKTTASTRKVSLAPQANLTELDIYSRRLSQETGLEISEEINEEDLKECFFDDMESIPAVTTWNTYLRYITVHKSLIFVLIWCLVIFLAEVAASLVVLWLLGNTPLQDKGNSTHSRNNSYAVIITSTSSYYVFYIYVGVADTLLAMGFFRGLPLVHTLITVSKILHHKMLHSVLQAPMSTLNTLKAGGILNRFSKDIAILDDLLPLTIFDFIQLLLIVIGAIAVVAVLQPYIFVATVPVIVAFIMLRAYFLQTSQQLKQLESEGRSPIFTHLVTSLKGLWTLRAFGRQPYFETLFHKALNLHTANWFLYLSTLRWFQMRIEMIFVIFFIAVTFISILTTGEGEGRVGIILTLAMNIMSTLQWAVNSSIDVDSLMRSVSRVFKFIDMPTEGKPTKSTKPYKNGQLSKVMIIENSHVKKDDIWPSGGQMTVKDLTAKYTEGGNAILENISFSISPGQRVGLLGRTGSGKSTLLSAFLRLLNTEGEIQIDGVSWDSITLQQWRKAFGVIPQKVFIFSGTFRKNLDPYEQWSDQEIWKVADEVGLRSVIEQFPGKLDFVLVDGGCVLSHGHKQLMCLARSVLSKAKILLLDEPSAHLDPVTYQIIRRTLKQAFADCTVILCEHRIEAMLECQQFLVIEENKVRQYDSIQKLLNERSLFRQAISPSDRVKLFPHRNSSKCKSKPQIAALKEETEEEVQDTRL
T2 sequence (P13569 whole entry): as above

Cc1ccc(O)c(-c2cc(-c3ccccc3)[nH]n2)c1 [VX-532, 4-Methyl-2-(5-phenyl-1Hpyrazol-3-yl)-phenol]
prevention of P31-43 induced decrease of CFTR function (CFTR): Prevents P31-43 Induced Inhibition of CFTR Function | effect on P31-43-induced reduction of BECN1, hVps34, UVRAG, Rab5 and Rab7 (Caco-2 cells): counteracted | effect on P31-43-induced reduction of PM-associated CFTR (PM-associated CFTR): counteracted
